From patent publication US20240116985A1, “STAPLED PEPTIDES AND METHODS THEREOF” (priority 2020, published 2024)
pIC50: −log10 of the molar value. Where two headings read alike, the source gives them in different places.

Molecular target: T1, full-length beta-Catenin (Uniprot ID P35222) (Homo sapiens, UniProt P35222)
T1 construct: 10 nM full-length beta-Catenin (Uniprot ID P35222)
T1 sequence (P35222 1-781): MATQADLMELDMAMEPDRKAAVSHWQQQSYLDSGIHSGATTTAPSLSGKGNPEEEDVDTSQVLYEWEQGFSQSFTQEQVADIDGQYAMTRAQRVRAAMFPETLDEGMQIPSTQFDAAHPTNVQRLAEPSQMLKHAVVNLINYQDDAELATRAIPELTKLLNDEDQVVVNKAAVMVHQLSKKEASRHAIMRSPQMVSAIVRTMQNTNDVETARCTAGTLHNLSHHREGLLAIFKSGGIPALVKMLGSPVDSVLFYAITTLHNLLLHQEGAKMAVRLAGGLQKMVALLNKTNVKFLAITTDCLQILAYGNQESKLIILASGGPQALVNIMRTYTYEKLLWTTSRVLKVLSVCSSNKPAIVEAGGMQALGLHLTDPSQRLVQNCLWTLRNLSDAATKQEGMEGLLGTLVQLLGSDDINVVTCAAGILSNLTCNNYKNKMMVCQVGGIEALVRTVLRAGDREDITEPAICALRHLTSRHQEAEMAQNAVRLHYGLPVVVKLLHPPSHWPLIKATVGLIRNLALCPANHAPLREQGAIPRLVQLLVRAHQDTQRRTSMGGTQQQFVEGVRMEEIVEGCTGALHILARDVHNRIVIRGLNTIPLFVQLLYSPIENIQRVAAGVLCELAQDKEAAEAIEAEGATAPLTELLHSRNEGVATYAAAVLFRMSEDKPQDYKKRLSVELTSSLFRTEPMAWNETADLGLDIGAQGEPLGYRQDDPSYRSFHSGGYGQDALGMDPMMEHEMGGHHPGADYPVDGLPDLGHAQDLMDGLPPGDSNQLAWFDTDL
Assay: Fluorescence polarization IC50 (beta-catenin / 5FAM-TCF4 10-53 competition)
Format: binding
Details: for pIC50: read-out: beta-Catenin FP IC50

Row | Structure (SMILES) | pIC50 (fluorescence polarization) | further results
1 | CC(=O)N1CCC[C@]12CC=CCCCC1(CCCC=CCCCOC(=O)N3CC[C@@](C(=O)N[C@@H](Cc4ccsc4)C(=O)N[C@@H](Cc4csc5ccccc45)C(=O)N[C@@H](CCC(N)=O)C(N)=O)(C3)NC(=O)[C@H](CCCNC(=N)N)NC(=O)[C@H](Cc3ccccc3)NC(=O)[C@H](C)NC(=O)[C@H](C)NC(=O)[C@H]([C@@H](C)O)NC(=O)[C@H](CC(N)=O)NC1=O)NC(=O)[C@H](CC(C)(C)C)NC(=O)[C@H](CC(=O)O)NC2=O (stereo partly drawn) [I-1882, Ac-PL3-Asp-Npg-B5-Asn-Thr-Ala-Ala-Phe-Arg-PyrS2-3Thi-BztA-Gln-NH2] | 6.40 | 
2 | CC(=O)N1CCC[C@]12CC1OC1CCCC1(CCCC=CCCCOC(=O)N3CC[C@@](C(=O)N[C@@H](Cc4ccccc4C(F)(F)F)C(=O)N[C@@H](Cc4csc5ccccc45)C(=O)N[C@@H](CCC(N)=O)C(N)=O)(C3)NC(=O)[C@H](CC(C)C)NC(=O)[C@H](Cc3ccccc3)NC(=O)[C@H](C)NC(=O)[C@H](C)NC(=O)[C@H](Cc3cccc(C(=O)O)c3)NC(=O)[C@H](CC(=O)O)NC1=O)NC(=O)[C@H](CC(C)(C)C)NC(=O)[C@H](CC(=O)O)NC2=O (stereo partly drawn) [I-2597, Ac-PL3-Asp-Npg-B5-Asp-3COOHF-Ala-Ala-Phe-Leu-PyrS2-2F3MeF-BztA-Gln-NH2] | 6.14 | 
3 | CC(=O)N1CCC[C@]12CCCCCCC1(CCCCCCCCOC(=O)N3CC[C@@](C(=O)N[C@@H](Cc4ccccc4C#N)C(=O)N[C@@H](Cc4csc5ccccc45)C(=O)N[C@@H](CCC(N)=O)C(N)=O)(C3)NC(=O)[C@H](CC(C)C)NC(=O)[C@H](Cc3ccccc3)NC(=O)[C@H](C)NC(=O)[C@H](C)NC(=O)[C@H](CN(CC(=O)O)CC(F)(F)F)NC(=O)[C@H](CC(=O)O)NC1=O)NC(=O)[C@H](CC(C)(C)C)NC(=O)[C@H](CC(=O)O)NC2=O (stereo partly drawn) [I-1712, Ac-PL3-Asp-Npg-B5-Asp-TfeGA-Ala-Ala-Phe-Leu-PyrS2-2CNF-BztA-Gln-NH2] | 6.22 | 
4 | CC(=O)N1CCC[C@]12CC=CCCCC1(CCCC=CCCCCCC[C@@](C)(C(=O)N[C@@H](Cc3ccccc3)C(=O)N[C@@H](Cc3csc4ccccc34)C(=O)N[C@@H](CCC(N)=O)C(N)=O)NC(=O)[C@H](CCC(N)=O)NC(=O)[C@H](Cc3ccccc3)NC(=O)[C@H](C)NC(=O)[C@H](C)NC(=O)[C@H](CCC(=O)O)NC(=O)[C@H](CC(=O)O)NC1=O)NC(=O)[C@H](CCC(N)=O)NC(=O)[C@H](CC(=O)O)NC2=O (stereo partly drawn) [I-1540, Ac-PL3-Asp-Gln-B5-Asp-Glu-Ala-Ala-Phe-Gln-S8-Phe-BztA-Gln-NH2] | 7.77 | 
5 | CC(=O)N1CCC[C@]12CC=CCCCC1(CCCC=CCCCOC(=O)N3CC[C@@](C(=O)N[C@@H](Cc4ccsc4)C(=O)N[C@@H](Cc4csc5ccccc45)C(=O)N[C@@H](Cc4c[nH]cn4)C(=O)N[C@@H](CCCCN)C(N)=O)(C3)NC(=O)[C@H](CCC(N)=O)NC(=O)[C@H](Cc3ccccc3)NC(=O)[C@H](C)NC(=O)[C@H](C)NC(=O)[C@H](CC(=O)O)NC(=O)[C@H](CC(=O)O)NC1=O)NC(=O)[C@H](CC(C)(C)C)NC(=O)[C@H](CC(=O)O)NC2=O (stereo partly drawn) [I-2230, Ac-PL3-Asp-Npg-B5-Asp-Asp-Ala-Ala-Phe-Gln-PyrS2-3thi-BztA-His-Lys-NH2] | 8.10 | 
6 | CC(=O)N1CCC[C@]12CC=CCCCC1(CCCC=CCCCOC(=O)N3CC[C@@](C(=O)N[C@@H](Cc4ccccc4Cl)C(=O)N[C@@H](Cc4csc5ccccc45)C(=O)N4CCC[C@H]4CO)(C3)NC(=O)[C@H](CC(N)=O)NC(=O)[C@H](Cc3ccccc3)NC(=O)[C@H](C)NC(=O)[C@H](C)NC(=O)[C@H](CC(=O)O)NC(=O)[C@H](CC(=O)O)NC1=O)NC(=O)[C@H](CC(C)(C)C)NC(=O)[C@H](CC(=O)O)NC2=O (stereo partly drawn) [I-1084, Ac-PL3-Asp-Npg-B5-Asp-Asp-Ala-Ala-Phe-Asn-PyrS2-2C1F-BztA-Proo1] |  | pIC50: 6.43
7 | CC(=O)N1CCC[C@]12CC=CCCCC1(CCCC=CCCCOC(=O)N3CC[C@@](C(=O)N[C@@H](Cc4ccccc4)C(=O)N[C@@H](Cc4csc5ccccc45)C(=O)N[C@@H](CCC(N)=O)C(N)=O)(C3)NC(=O)[C@H](CC(C)C)NC(=O)[C@H](Cc3ccccc3)NC(=O)[C@H](C)NC(=O)[C@H](CCO)NC(=O)[C@H]([C@@H](C)O)NC(=O)[C@H](CC(=O)O)NC1=O)NC(=O)[C@H](CC1CCCCC1)NC(=O)[C@H](CC(N)=O)NC2=O (stereo partly drawn) [I-2447, Ac-PL3-Asn-Cha-B5-Asp-Thr-Hse-Ala-Phe-Leu-PyrS2-Phe-BztA-Gln-NH2] | 5.49 | 
8 | CC(=O)N1CCC[C@]12CC=CCCCC1(CCCC=CCCCOC(=O)N3CC[C@@](C(=O)N[C@@H](Cc4ccsc4)C(=O)N[C@@H](Cc4csc5ccccc45)C(=O)N[C@@H](CCCNC(=N)N)C(N)=O)(C3)NC(=O)[C@H](CC(N)=O)NC(=O)[C@H](Cc3ccccc3)NC(=O)[C@H](C)NC(=O)[C@H](C)NC(=O)[C@H]([C@@H](C)O)NC(=O)[C@H](CC(N)=O)NC1=O)NC(=O)[C@H](CC(C)(C)C)NC(=O)[C@H](CC(=O)O)NC2=O (stereo partly drawn) [I-1743, Ac-PL3-Asp-Npg-B5-Asn-Thr-Ala-Ala-Phe-Asn-PyrS2-3Thi-BztA-Arg-NH2] | 6.33 | 
9 | CC(=O)N1CCC[C@]12CC=CCCCC1(CCCC=CCCCOC(=O)N3CC[C@@](C(=O)N[C@@H](Cc4ccsc4)C(=O)N[C@@H](Cc4csc5ccccc45)C(=O)N[C@@H](CCC(N)=O)C(N)=O)(C3)NC(=O)[C@H](CC(N)=O)NC(=O)[C@H](Cc3ccc(O)cc3)NC(=O)[C@H](C)NC(=O)[C@H](C)NC(=O)[C@H]([C@@H](C)O)NC(=O)[C@H](CC(N)=O)NC1=O)NC(=O)[C@H](CC(C)(C)C)NC(=O)[C@H](CC(=O)O)NC2=O (stereo partly drawn) [I-2016, Ac-PL3-Asp-Npg-B5-Asn-Thr-Ala-Ala-Tyr-Asn-PyrS2-3Thi-BztA-Gln-NH2] | 6.15 | 
10 | CC(C)C[C@@H]1NC(=O)[C@H](Cc2ccccc2)NC(=O)[C@H](C)NC(=O)[C@H](C)NC(=O)[C@H](Cc2cccc(C(=O)O)c2)NC(=O)[C@H](CC(=O)O)NC(=O)C2(CCCC=CCCCOC(=O)N3CC[C@@](C(=O)N[C@@H](Cc4ccccc4Cl)C(=O)N[C@@H](Cc4csc5ccccc45)C(=O)N[C@@H](C)C(N)=O)(C3)NC1=O)CCCC=CC[C@]1(CCCN1C(=O)Oc1ccccc1)C(=O)N[C@@H](CC(=O)O)C(=O)N[C@@H](CC(C)(C)C)C(=O)N2 (stereo partly drawn) [I-2327, CO2Ph-PL3-Asp-Npg-B5-Asp-3COOHF-Ala-Ala-Phe-Leu-PyrS2-2C1F-BztA-Ala-NH2] |  | IC50 (beta-Catenin FP IC50 (nM), fluorescence polarization): 376 nM
11 | CC(=O)N1CCC[C@]12CCCCCCC[C@@](C)(C(=O)N[C@@H](CC(=O)O)C(=O)N[C@@H](CC(=O)O)C(=O)N[C@@H](C)C(=O)N[C@@H](C)C(=O)N[C@@H](Cc1ccccc1)C(=O)N[C@@H](CC(C)C)C(=O)NC(C)(C)C(=O)N[C@@H](Cc1ccsc1)C(=O)N[C@@H](Cc1csc3ccccc13)C(=O)N[C@@H](CCC(N)=O)C(N)=O)NC(=O)[C@H](CC(C)(C)C)NC(=O)[C@H](CC(=O)O)NC2=O [I-1981, Ac-PL3-Asp-Npg-S6-Asp-Asp-Ala-Ala-Phe-Leu-Aib-3Thi-BztA-Gln-NH2] | 6.25 | 
12 | CC(=O)N1CCC[C@]12CC=CCCCC1(CCCC=CCCCOC(=O)N3CC[C@@](C(=O)N[C@@H](Cc4ccccc4Cl)C(=O)N[C@@H](Cc4csc5ccccc45)C(=O)N[C@@H](CCC(N)=O)C(=O)N[C@@H](C)CO)(C3)NC(=O)[C@H](CC(C)C)NC(=O)[C@H](Cc3ccccc3)NC(=O)[C@H](C)NC(=O)[C@H](C)NC(=O)[C@H](Cc3cccc(C(=O)O)c3)NC(=O)[C@H](CC(=O)O)NC1=O)NC(=O)[C@H](CC(C)(C)C)NC(=O)[C@H](CC(=O)O)NC2=O (stereo partly drawn) [I-1673, Ac-PL3-Asp-Npg-B5-Asp-3COOHF-Ala-Ala-Phe-Leu-PyrS2-2C1F-BztA-Gln-Alao1] | 7.55 | 
